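In this assay, cells in 96-well plates receive the compound at five concentrations for 48 hours. Endpoints are linearly interpolated between the surrounding concentrations. GI50 = concentration required for 50% inhibition of growth.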 The source made the active and inactive calls. Rule as the data show it: active = GI50 up to about 1.1 µM and inactive = higher.
What was measured:
Test in all cases: NCI tumour cell line growth inhibition, 48 h
UACC-62 = test system: UACC-62
Hs-578T = test system: Hs-578T
HL-60 = test system: HL-60
A498 = test system: A498
PC-3 = test system: PC-3
COLO 205 = test system: COLO 205
BT-549 = test system: BT-549
EKVX = test system: EKVX
HCT-116 = test system: HCT-116
HCT-15 = test system: HCT-15
SF-268 = test system: SF-268
NCI-H522 = test system: NCI-H522
OVCAR-5 = test system: OVCAR-5
MDA-N = test system: MDA-N
A549 = test system: A549
UACC-257 = test system: UACC-257
HT-29 = test system: HT-29
RXF 393 = test system: RXF 393
HOP-62 = test system: HOP-62

SMILES | GI50 (UACC-62) | GI50 (Hs-578T) | GI50 (HL-60) | GI50 (A498) | GI50 (PC-3) | GI50 (COLO 205) | GI50 (BT-549) | GI50 (EKVX) | GI50 (HCT-116) | GI50 (HCT-15) | GI50 (SF-268) | GI50 (NCI-H522) | GI50 (OVCAR-5) | GI50 (MDA-N) | GI50 (A549) | GI50 (UACC-257) | GI50 (HT-29) | GI50 (RXF 393) | GI50 (HOP-62)
CC(=O)OCCn1c(Cc2ccc(Cl)cc2)nn(C(C)=O)c1=O | > 100 µM (inactive) | > 100 µM (inactive) | > 100 µM (inactive) | > 100 µM (inactive) | > 100 µM (inactive) | > 100 µM (inactive) | > 100 µM (inactive) | > 100 µM (inactive) | > 100 µM (inactive) | > 100 µM | > 100 µM (inactive) | > 100 µM (inactive) | > 100 µM (inactive) | > 100 µM (inactive) | > 100 µM (inactive) | > 100 µM (inactive) | > 100 µM (inactive) |  | 
CCOC(=O)C1=CC(C)(C(=O)OCC)Nc2c(nc(OC)n(C)c2=O)N1 (stereo not given) |  | > 10 µM (inactive) |  | > 10 µM (inactive) | > 10 µM (inactive) | > 10 µM (inactive) | > 10 µM (inactive) | > 10 µM (inactive) | > 10 µM (inactive) | > 10 µM | > 10 µM (inactive) | > 10 µM (inactive) | > 10 µM (inactive) | > 10 µM (inactive) | > 10 µM (inactive) | > 10 µM (inactive) | > 10 µM (inactive) | > 10 µM (inactive) | > 10 µM (inactive)
Clc1ccc(NCc2nnc(CCCCCCCCc3nnc(CNc4ccc(Cl)cc4)o3)o2)cc1 | > 100 µM (inactive) | > 100 µM (inactive) |  | > 100 µM (inactive) | > 100 µM (inactive) | > 100 µM (inactive) | > 100 µM (inactive) | > 100 µM (inactive) | > 100 µM (inactive) | > 100 µM | > 100 µM (inactive) | > 100 µM (inactive) | > 100 µM (inactive) | > 100 µM (inactive) | > 100 µM (inactive) | > 100 µM (inactive) | > 100 µM (inactive) | > 100 µM (inactive) | > 100 µM (inactive)
CC(=O)Nc1ccc2nc(-c3ccccn3)c(-c3ccccn3)nc2c1 | > 100 µM (inactive) | > 100 µM (inactive) | > 100 µM (inactive) | > 100 µM (inactive) | > 100 µM (inactive) | > 100 µM (inactive) | > 100 µM (inactive) | > 100 µM (inactive) |  | > 100 µM | > 100 µM (inactive) | > 100 µM (inactive) | > 100 µM (inactive) | > 100 µM (inactive) | > 100 µM (inactive) | > 100 µM (inactive) |  | 89.7 µM (inactive) | 
CCCCCC(=O)n1[nH]c(=O)n(-c2ccc(OC)cc2)c1=O | > 100 µM (inactive) | > 100 µM (inactive) | > 100 µM (inactive) |  | > 100 µM (inactive) | > 100 µM (inactive) | > 100 µM (inactive) | > 100 µM (inactive) | > 100 µM (inactive) | > 100 µM | > 100 µM (inactive) | 57.5 µM (inactive) | > 100 µM (inactive) | > 100 µM (inactive) | > 100 µM (inactive) | > 100 µM (inactive) | > 100 µM (inactive) | > 100 µM (inactive) | > 100 µM (inactive)
CC1=CC(C2/C(=N/O)C=C(C)CC2(C)C)C(O)C(C)(C)C1 (stereo not given) | 15.2 µM (inactive) | 31.8 µM (inactive) | 16 µM (inactive) | 18 µM (inactive) | 16.1 µM (inactive) | 17.1 µM (inactive) | 17.6 µM (inactive) | 16.5 µM (inactive) | 15.7 µM (inactive) | 16.3 µM | 18 µM (inactive) |  | 19.1 µM (inactive) | 17 µM (inactive) | 15.5 µM (inactive) | 15.5 µM (inactive) | 14.3 µM (inactive) | 15.3 µM (inactive) | 14.9 µM (inactive)
O=C(O)CSC1=NC(=O)C2(NN1)c1ccccc1-c1ccccc12 | > 10 µM (inactive) | > 10 µM (inactive) | > 10 µM (inactive) |  | > 10 µM (inactive) | > 10 µM (inactive) | > 10 µM (inactive) | > 10 µM (inactive) | > 10 µM (inactive) | > 10 µM | > 10 µM (inactive) | > 10 µM (inactive) |  | > 10 µM (inactive) | > 10 µM (inactive) | > 10 µM (inactive) | > 10 µM (inactive) | > 10 µM (inactive) | > 10 µM (inactive)
O=C(Nc1sccc1S(=O)(=O)c1ccccc1)c1ccccc1 | > 100 µM (inactive) | > 100 µM (inactive) |  | > 100 µM (inactive) | > 100 µM (inactive) | > 88.1 µM (inactive) | > 100 µM (inactive) | > 100 µM (inactive) | > 100 µM (inactive) | 7.16 µM | > 100 µM (inactive) | > 100 µM (inactive) | > 100 µM (inactive) | 3.73 µM (inactive) | > 100 µM (inactive) | > 100 µM (inactive) | > 31.6 µM (inactive) |  | > 70.5 µM (inactive)
CCCC(=O)NC(Nc1cc(C)ccn1)(C(=O)OCC)C(F)(F)F (stereo not given) | > 100 µM (inactive) | > 100 µM (inactive) | > 100 µM (inactive) |  | > 100 µM (inactive) | > 100 µM (inactive) | > 100 µM (inactive) | > 100 µM (inactive) | > 100 µM (inactive) | > 100 µM | > 100 µM (inactive) | > 100 µM (inactive) | > 100 µM (inactive) | > 100 µM (inactive) | > 100 µM (inactive) | > 100 µM (inactive) | > 100 µM (inactive) | > 100 µM (inactive) | > 100 µM (inactive)
O=C1c2ccccc2-n2c1nc1cc(Cl)ccc1c2=O | 11.2 µM (inactive) | 20.2 µM (inactive) |  | > 100 µM (inactive) | > 100 µM (inactive) | > 100 µM (inactive) | > 100 µM (inactive) | > 100 µM (inactive) | > 100 µM (inactive) | 21.2 µM | 61.9 µM (inactive) | 29.9 µM (inactive) | > 100 µM (inactive) | 14.5 µM (inactive) | 66.8 µM (inactive) | 9.68 µM (inactive) | 61.9 µM (inactive) | 55.7 µM (inactive) | 81.7 µM (inactive)
Cc1nc(-c2ccc([N+](=O)[O-])cc2)cn2c1nc1ccccc12 | 15.9 µM (inactive) | > 100 µM (inactive) | > 100 µM (inactive) | > 100 µM (inactive) | > 100 µM (inactive) | > 100 µM (inactive) | > 100 µM (inactive) | > 100 µM (inactive) | > 100 µM (inactive) | > 100 µM | > 100 µM (inactive) |  | > 100 µM (inactive) | > 100 µM (inactive) | > 100 µM (inactive) | > 100 µM (inactive) | > 100 µM (inactive) | 41.6 µM (inactive) | 36.5 µM (inactive)
Nc1ccccc1CCN1CCN(CCCc2ccccc2)CC1 | 84.3 µM (inactive) | > 100 µM (inactive) | 17.8 µM (inactive) | 74.5 µM (inactive) | 95.9 µM (inactive) | 21 µM (inactive) | > 100 µM (inactive) | > 100 µM (inactive) | 34.7 µM (inactive) | 33.2 µM | 99.5 µM (inactive) | 39.2 µM (inactive) | > 100 µM (inactive) | 53 µM (inactive) | 70.8 µM (inactive) | 32.5 µM (inactive) | 21.4 µM (inactive) |  | > 100 µM (inactive)

— ChEMBL document CHEMBL1201862, “PubChem BioAssay data set” (2004)
